According to PubChem BioAssay (NCI):
Values joined by “and” are separate entries in the source; they are usually repeats but may differ in a detail not shown here. Equal entries are not always repeated.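 Five compound concentrations were applied to cells in 96-well plates for 48 hours; endpoints were derived by simple linear interpolation of the resulting dose-response curve. GI50 = concentration required for 50% inhibition of growth. At the TGI there is no net growth.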

Experiments:
Test in all cases: NCI anticancer screen, dose series, 48 h
[1] = test system: SK-MEL-28 melanoma
[2] = test system: SF-268 CNS
[3] = test system: MDA-MB-231 breast
[4] = test system: A549 NSCLC
[5] = test system: MCF7 breast
[6] = test system: HS 578T breast
[7] = test system: SK-OV-3 ovarian
[8] = test system: EKVX NSCLC
[9] = test system: SF-295 CNS
[10] = test system: HOP-92 NSCLC

SMILES | GI50 [1] | TGI [1] | GI50 [2] | TGI [2] | GI50 [3] | TGI [3] | GI50 [4] | TGI [4] | GI50 [5] | TGI [5] | GI50 [6] | TGI [6] | GI50 [7] | TGI [7] | GI50 [8] | TGI [8] | GI50 [9] | TGI [9] | GI50 [10] | TGI [10]
CS(=O)(=O)c1nccc(-c2c(-c3cccc(OCc4ccc(F)cc4)c3)nc3sccn23)n1 | 23.8 µM | > 100 µM | 40.1 µM | > 100 µM | 34.3 µM | > 100 µM | > 81.8 µM | > 100 µM | 8.31 µM | > 100 µM | 14.3 µM | > 100 µM | 47.4 µM | > 100 µM | 26.4 µM | > 100 µM | > 100 µM | > 100 µM | 11.1 µM | > 100 µM
O=S(=O)(c1cccc(C(F)(F)F)c1)N1c2ccccc2-n2cccc2C1c1cccnc1 (centres undefined) |  | > 59 µM |  | > 66 µM |  | > 54.5 µM |  | > 56.4 µM |  | > 76 µM |  | > 76.3 µM |  | > 78.9 µM |  | > 100 µM |  | > 100 µM |  | > 67.7 µM
Brc1c[n+](Cc2ccc3ccccc3c2)cn1Cc1ccc2ccccc2c1 | 1.55 µM | 3.09 µM | 1.47 µM | 3.02 µM | 1.4 µM | 2.86 µM | 6.9 µM | 29.4 µM | 1.59 µM | 3.39 µM | 1.92 µM | 4.84 µM | 2.56 µM | 11.4 µM | 9.93 µM | 25 µM | 2.22 µM | 7.28 µM | 0.904 µM | 2.39 µM
COc1ccccc1-c1cc2c3c(nc4ccccc42)C(=O)c2cccnc2-c3n1 | 18.4 µM | 34.7 µM | 17.6 µM | 38.9 µM | 18.2 µM | > 56.7 µM | 10 µM | 24 µM | 1.44 µM | 3.95 µM | 17.9 µM | 37.9 µM | 20.8 µM | 51.2 µM | 14.8 µM | 45.4 µM | 17.4 µM | 50.8 µM | 19.1 µM | > 100 µM
OCCN1CCN(CCCN2c3ccccc3Sc3ccc(C(F)(F)F)cc32)CC1 | 0.91 µM and 2.48 µM and 2.2 µM | 1.66 µM and 7.16 µM and 5.98 µM | 5.2 µM and 11.5 µM | 11.5 µM and 24.5 µM | 1.2 µM and 8.87 µM and 5.68 µM | 5.07 µM and 22.8 µM and 18.1 µM | 2.79 µM and 10.8 µM and 9.54 µM | 9.84 µM and 24 µM and 22.9 µM | 1.2 µM and 6.8 µM and 7.74 µM | 2.92 µM and 22.6 µM and 25.1 µM | 1.86 µM and 13.5 µM and 8.23 µM | 13.1 µM and 60.6 µM and 41.6 µM | 5.55 µM and 14.5 µM and 13.3 µM | 11.7 µM and 29.1 µM and 27.3 µM | 5.18 µM and 11.6 µM and 10.4 µM | 12.7 µM and 29.2 µM and 30.4 µM | 1.02 µM and 4.73 µM and 2.41 µM | 2.7 µM and 19.2 µM and 6.19 µM | 0.708 µM | 3.81 µM
COc1ccc(C(CC(=O)c2ccccc2)C(C(=O)c2ccccc2)C(c2ccc(OC)cc2)C2C(=O)NC(=O)NC2=O)cc1 (centres undefined) | 23.7 µM | > 100 µM | 12.8 µM | 75.4 µM | 2.24 µM | 16.2 µM | 15.9 µM | > 100 µM | 18.7 µM | > 100 µM | 25.9 µM | > 100 µM | > 100 µM | > 100 µM | 12.5 µM | > 100 µM | 23.2 µM | > 100 µM | 2.3 µM | 50.2 µM
CCCOC(=O)N[C@H]1CCc2c(Br)c(OC)c(OC)c(OC)c2-c2ccc(SC)c(=O)cc21 | 2.83 µM | 23.2 µM | 0.0455 µM | 17.8 µM | 0.0359 µM | 6.45 µM | 0.0395 µM | > 68.4 µM | < 0.01 µM | 12.2 µM | 0.0321 µM | 49.1 µM | 0.0726 µM | 59.5 µM | 0.0474 µM | > 100 µM | 0.0252 µM | 0.833 µM | 0.0411 µM | 6.28 µM
CC1OCC2OC(C)OC(C3C4=C(CC(C)(C)CC4=O)OC4=C3C(=O)CC(C)(C)C4)C2O1 (centres undefined) |  | > 100 µM |  | > 100 µM |  | > 100 µM |  | > 100 µM |  | > 100 µM |  | > 100 µM |  | > 100 µM |  | > 100 µM |  | > 100 µM |  | > 100 µM
Cc1c(Cl)cccc1NC(=O)CC1Sc2ccccc2NC1=O (centres undefined) | 27.4 µM and 55 µM | > 100 µM | 18.4 µM and 37.1 µM | 46.6 µM and > 100 µM |  | 32.1 µM |  | 54.2 µM and > 100 µM |  | > 87 µM |  | 25.3 µM |  | 33 µM and 39.3 µM |  | > 100 µM |  | 58.9 µM and > 100 µM |  | 42.9 µM and 64 µM
O=C1Nc2ccc(Cl)cc2/C1=C\c1c(-c2ccc(F)cc2)nc2ccccn12 | 3.33 µM | 15.3 µM | 2.34 µM | 6.04 µM | 3.5 µM | 36.6 µM | 2.14 µM | 5.17 µM | 2.71 µM | 10.7 µM | 2.2 µM | 8.37 µM | 2.18 µM | 5.06 µM | 3.08 µM | 58.1 µM | 1.87 µM | 4.23 µM | 1.86 µM | 7.1 µM
COc1ccc2c(c1)O/C(=C\c1cccc(OCC(=O)Nc3nc4ccccc4s3)c1)C2=O | > 72 µM | > 100 µM | 4.83 µM | 11 µM | 7.35 µM | > 23.1 µM | 39.8 µM | > 100 µM | 14.2 µM | > 100 µM | 13.8 µM | 70.1 µM | > 100 µM | > 100 µM | 29 µM | > 100 µM | 11.4 µM | > 71.7 µM | 2.65 µM | 18.4 µM
O=C(c1ccccc1)c1ccc(-c2ccc(O)cc2)cc1 | 10.4 µM | > 61.7 µM | 5.85 µM | 57.3 µM | 6.08 µM | 37.6 µM | 3.9 µM | > 65.3 µM | 0.34 µM | 25.2 µM | 17.3 µM | > 53.3 µM | 14.8 µM | > 71.6 µM | 4.42 µM | 41.5 µM | 2.43 µM | 10.5 µM | 5.63 µM | 30.3 µM
COC1/C=C/O[C@@]2(C)Oc3c(C)c(O)c4c(O)c(cc(O)c4c3C2=O)NC(=O)/C(C)=C\C=C\[C@H](C)C(O)[C@@H](C)[C@@H](O)[C@@H](C)[C@H](OC(C)=O)[C@@H]1C (some centres undefined) |  | 52 µM and 57.3 µM | 18.3 µM | 33.4 µM and 61.7 µM | 14.2 µM | 27.2 µM and 56.2 µM | 16.8 µM and 58.5 µM | 31.3 µM and 143 µM | 17.3 µM | 32.3 µM and 29.7 µM | 24.2 µM | 64.6 µM and 114 µM |  | 211 µM | 14.2 µM and 58.6 µM | 27.8 µM and 136 µM |  | 196 µM | 12 µM | 24.3 µM and 23.6 µM
CCC(=O)Sc1ccccc1C(=O)Nc1ccc(Cl)cc1 | 9.33 µM | 57.7 µM | 9.67 µM | 52.9 µM | 11.2 µM | 45.7 µM | 11.7 µM | > 100 µM | 3.86 µM | 36.2 µM | 15.9 µM | 66.4 µM | 18.7 µM | 53.9 µM | 7.16 µM | 75.2 µM | 5.08 µM | 25.4 µM | 2.52 µM | 9.67 µM
Cc1oc2ccccc2c(=O)c1Cn1nnc2ccccc21 |  | > 100 µM |  | > 100 µM |  | > 100 µM |  | > 100 µM |  | 49.2 µM |  | > 100 µM |  | > 100 µM |  | > 100 µM |  | > 100 µM |  | 87.4 µM
C=CC1CC12C(=O)C1OC2(C)C2C(=O)c3ccccc3C(=O)C12 (centres undefined) | > 71 µM | > 100 µM | > 54 µM | > 92.5 µM | 24.8 µM | > 100 µM | > 60 µM | > 100 µM | 42.9 µM | > 76.1 µM | > 57.4 µM | 98.2 µM | > 93.3 µM | > 100 µM | > 100 µM | > 100 µM | 23.6 µM | 59.8 µM | > 77.6 µM | > 100 µM
Cc1ccc(NS(=O)(=O)c2ccc(-c3cnc(C4CC4)o3)cc2)cc1 | 6.22 µM | 20.1 µM | 6.19 µM | 21.3 µM | 4.5 µM | 18.8 µM | 4.55 µM | 26.2 µM | 1.55 µM | 14.9 µM | 2.71 µM | 13.5 µM | 4.81 µM | 19.6 µM | 4.24 µM | 19.9 µM | 2.66 µM | 12.2 µM | 2.14 µM | 13.2 µM
O=C1C(=O)c2ccc(Br)cc2-c2cc(Br)ccc21 | 5.52 µM | > 55.5 µM | 1.35 µM | 8.58 µM | 0.82 µM | 2.54 µM | 5.37 µM | > 95.6 µM | 2.34 µM | 8.61 µM | 8.27 µM | > 78.9 µM | 29.1 µM | > 87.5 µM | > 100 µM | > 100 µM | 51.8 µM | > 100 µM | 1.36 µM | 9.5 µM
COc1cc2c(cc1OC)C13CCN4CC5=CCOC(CC(=O)O)C(C5CC41)C3N2 (centres undefined) |  | > 100 µM |  | > 100 µM |  | > 100 µM |  | > 100 µM |  | > 100 µM |  | > 100 µM |  | > 100 µM |  | > 100 µM |  | > 100 µM |  | > 100 µM
